From publication PMC4491418, “Characterisation of Dermanyssus gallinae glutathione S-transferases and their potential as acaricide detoxification proteins” (Parasites & Vectors, 2015)

Legend:
Type in all cases: biochemical
rDeg-GST-3 [1] = target: T1, rDeg-GST-3 (Dermanyssus gallinae, UniProt A0A0H4FPP8); assay: GSH-CDNB conjugation, A340nm; conditions: 0-1 mM CDNB, 2 mM GSH, pH 6.5
T1 construct: full-length CDS (669 bp ORF, 222 aa) in pETSUMO; N-terminal His-tag and SUMO fusion kept; E. coli BL21-CodonPlus(DE3)-RIL; HisTrap purified
T1 sequence (A0A0H4FPP8 1-222): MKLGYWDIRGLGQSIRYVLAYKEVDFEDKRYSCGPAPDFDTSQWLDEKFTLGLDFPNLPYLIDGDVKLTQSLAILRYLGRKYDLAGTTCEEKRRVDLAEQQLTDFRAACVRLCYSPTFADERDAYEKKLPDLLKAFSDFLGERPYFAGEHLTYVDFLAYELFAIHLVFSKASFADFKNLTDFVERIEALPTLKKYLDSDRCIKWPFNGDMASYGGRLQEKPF

rDeg-GST-1 [2] = target: T2, rDeg-GST-1 (Dermanyssus gallinae, UniProt A0A0H4FNI7); assay: GSH-CDNB conjugation, A340nm; conditions: 0-1 mM CDNB, 2 mM GSH, pH 6.5
T2 construct: full-length CDS (735 bp ORF, 244 aa) in pETSUMO; N-terminal His-tag and SUMO fusion kept; E. coli BL21-CodonPlus(DE3)-RIL; HisTrap purified
T2 sequence (A0A0H4FNI7 1-244): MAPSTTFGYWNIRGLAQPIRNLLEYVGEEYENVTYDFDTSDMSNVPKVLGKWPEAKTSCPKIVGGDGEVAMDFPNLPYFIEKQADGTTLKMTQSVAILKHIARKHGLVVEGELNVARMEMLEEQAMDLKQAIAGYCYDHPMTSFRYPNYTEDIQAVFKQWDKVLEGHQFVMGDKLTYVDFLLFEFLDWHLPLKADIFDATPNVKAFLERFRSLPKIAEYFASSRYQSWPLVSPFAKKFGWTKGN

rDeg-GST-2 [3] = target: T3, rDeg-GST-2 (Dermanyssus gallinae, UniProt A0A0H4FKJ9); assay: GSH-CDNB conjugation, A340nm; conditions: 0-1 mM CDNB, 2 mM GSH, pH 6.5
T3 construct: full-length CDS (633 bp ORF, 210 aa) in pETSUMO; N-terminal His-tag and SUMO fusion kept; E. coli BL21-CodonPlus(DE3)-RIL; HisTrap purified
T3 sequence (A0A0H4FKJ9 1-210): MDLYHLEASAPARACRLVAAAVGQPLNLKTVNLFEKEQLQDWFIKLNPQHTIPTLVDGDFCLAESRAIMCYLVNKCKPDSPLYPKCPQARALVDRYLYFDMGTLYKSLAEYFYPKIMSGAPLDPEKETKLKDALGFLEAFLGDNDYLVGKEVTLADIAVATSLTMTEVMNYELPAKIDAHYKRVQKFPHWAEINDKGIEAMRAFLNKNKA

rDeg-GST-1 [4] = target: T2, rDeg-GST-1; assay: inhibition of GSH-CDNB conjugation, A340nm; conditions: 100 µM; 1 mM CDNB, 2 mM GSH, pH 6.5 substrate buffer; 10 min preincubation at RT; mode not determined
From the text: inhibition of GSH-CDNB conjugation, A340nm on rDeg-GST-1

rDeg-GST-3 [5] = target: T1, rDeg-GST-3; assay: inhibition of GSH-CDNB conjugation, A340nm; conditions: 100 µM; 1 mM CDNB, 2 mM GSH, pH 6.5 substrate buffer; 10 min preincubation at RT; mode not determined
From the text: inhibition of GSH-CDNB conjugation, A340nm on rDeg-GST-3

rDeg-GST-2 [6] = target: T3, rDeg-GST-2; assay: inhibition of GSH-CDNB conjugation, A340nm; conditions: 100 µM; 1 mM CDNB, 2 mM GSH, pH 6.5 substrate buffer; 10 min preincubation at RT; mode not determined
From the text: inhibition of GSH-CDNB conjugation, A340nm on rDeg-GST-2

SMILES | GSH-CDNB conjugation, A340nm (rDeg-GST-3 [1]) | GSH-CDNB conjugation, A340nm (rDeg-GST-1 [2]) | GSH-CDNB conjugation, A340nm (rDeg-GST-2 [3]) | % reduction in Deg-GST activity ± SEM / rDeg-GST-1 (0.3 μg GST/well) (rDeg-GST-1 [4]) [%] | % reduction in Deg-GST activity ± SEM / rDeg-GST-3 (1.5 μg GST/well) (rDeg-GST-3 [5]) [%] | % reduction in Deg-GST activity ± SEM / rDeg-GST-2 (1.5 μg GST/well) (rDeg-GST-2 [6]) [%]
O=[N+]([O-])c1ccc(Cl)c([N+](=O)[O-])c1 [1-chloro-2,4-dinitrobenzene] | All three rDeg-GSTs were enzymically-active molecules capable of catalyzing the conjugation of GSH to CDNB | All three rDeg-GSTs were enzymically-active molecules capable of catalyzing the conjugation of GSH to CDNB | All three rDeg-GSTs were enzymically-active molecules capable of catalyzing the conjugation of GSH to CDNB | – | – | –
CC1(C)C(C=C(Cl)Cl)C1C(=O)OCc1cccc(Oc2ccccc2)c1 (stereo not shown) [Permethrin] | – | – | – | 35.39 ± 0.9 | – | –
CCOP(=S)(OCC)ON=C(C#N)c1ccccc1 [Phoxim] | – | – | – | 56.38 ± 3.0 | 20.56 ± 2.5 | 14.8 ± 1.5
